Assay results reported in article PMC9131373 (Drug testing and analysis, 2021).
Several values for one entry are separate records, joined by “and”; a condition that tells them apart may be missing. Equal values may be shown once. Read-outs that look alike come from different tables or passages of the source.

Legend:
[1] = cited from earlier work; for Intracellular TFV-DP levels, higher: than levels without boosting
[2] = MSM on TAF/FTC/COBI/EVG versus TDF/FTC; cited from earlier work
[3] = cited from earlier work
[4] = Stability of TFV and FTC in stock solutions, processed samples and hair; assay type: physicochemical; details: for Stability in processed samples: a week in a refrigerator at 4°C; for Time stable in hair samples: room temperature, deviation less than ±15%
[5] = TFV and FTC concentrations in participant hair samples by LC/MS/MS; assay type: in vivo, human; details: for Difference of average hair concentration, TAF versus TDF: those on TAF relative to those on TDF
[6] = cited from earlier work; remark: listed apart in the source
[7] = Plasma pharmacokinetics of TFV after TDF or TAF; assay type: in vivo, human; details: from ref 75 and ref 76
[8] = TDF/FTC to HIV-noninfected volunteers, directly-observed, 7 days a week; cited from earlier work
[9] = 200 μg/ml in 50% MeOH, at least 6 h at room temperature
[10] = 6 participants on TAF/FTC-based ART
[11] = 10 participants on TDF/FTC-based ART
[12] = TAF-based ART, with booster (COBI or RTV)
[13] = TDF-based ART, not receiving boosters
[14] = TDF-based ART, receiving boosters (COBI or RTV)
[15] = average of original and repeated, one line per patient
[16] = both TDF- and TAF-containing ART, not on booster drugs
[17] = both TDF- and TAF-containing ART, on concomitant boosters (COBI or RTV)
[18] = TAF-based versus TDF-based regimen with darunavir/COBI/FTC
[19] = plasma, TAF (8 mg) compared with TDF (300 mg)
[20] = plasma, TAF (25 mg) compared with TDF (300 mg)
[21] = plasma, from TAF with darunavir/COBI/FTC
[22] = plasma, from TDF with darunavir/COBI/FTC

CC(Cn1cnc2c(N)ncnc21)OCP(=O)(O)OP(=O)(O)OP(=O)(O)O (stereo in doubt) [TFV-DP, tenofovir diphosphate]
Intracellular TFV-DP levels, higher ([1]; EVG/COBI/TAF/FTC): 5.3 fold
AUC of TFV-DP in PBMCs, higher than on TDF ([1]; TAF 8 mg versus TDF): 16.7%
AUC of TFV-DP in PBMCs, higher than on TDF ([1]; TAF 25 mg versus TDF): 613%
Intracellular TFV-DP levels, higher ([1]; darunavir/COBI/TAF/FTC): 652%

Nc1nc(=O)n([C@@H]2CS[C@H](CO)O2)cc1F [FTC, emtricitabine]
Median urine FTC concentrations between regimens [2]: not different
acidic pKa [3]: 13.83
basic pKa [3]: 2.4
Stock solution stability [4, 9]: > 95.0%
Stability in processed samples [4]: > 95.0%
Stock solution stability ([4]; at least 1 year at 4°C): > 95.0%
Time stable in hair samples [4]: at least 18 months
Average hair concentration [5, 10]: 1.04 ± 0.83 ng/mg hair and 1.04 ng/mg hair
Average hair concentration [5, 11]: 0.846 ± 0.659 ng/mg hair and 0.846 ng/mg hair
Hair concentration [5, 12]: 0.705 ± 0.233 ng/mg hair
Hair concentration ([5]; TAF-based ART, without booster): 1.37 ± 1.16 ng/mg hair
Hair concentration [5, 13]: 0.428 ± 0.343 ng/mg hair
Hair concentration ([5]; TDF-based ART, receiving COBI): 1.26 ± 0.59 ng/mg hair
Hair concentration ([5]; TDF-based ART, receiving RTV): 0.851 ± 0.807 ng/mg hair
Hair concentration [5, 14]: 1.03 ± 0.70 ng/mg hair
FTC normalized average concentration, Average concentration [5, 15]: 0.988 ng/mg hair and 2.76 ng/mg hair and 1.05 ng/mg hair and 0.412 ng/mg hair and 1.86 ng/mg hair and 0.146 ng/mg hair and 0.840 ng/mg hair and 0.348 ng/mg hair and 0.694 ng/mg hair and 0.502 ng/mg hair
Hair concentration [5, 16]: 0.898 ± 0.925 ng/mg hair
Hair concentration [5, 17]: 0.930 ± 0.601 ng/mg hair
Difference of average hair concentration, TAF versus TDF [5]: 22.9%

Nc1[15n][13c](=O)[15n]([C@@H]2CS[C@H](CO)O2)cc1F [FTC-^13C,^15N2, emtricitabine-^13C,^15N2]
Stock solution stability [4, 9]: > 95.0%

C[C@H](Cn1cnc2c(N)ncnc21)OCP(=O)(O)O [TFV, Tenofovir]
Median urine TFV concentrations, lower on TAF-based regimen than on TDF [2]: approximately 14 times
plasma Cmax, lower ([6]; 25 mg TAF compared with 300 mg TDF): 17 times
plasma exposure of TFV, lower ([6]; EVG/COBI/TAF/FTC compared to EVG/COBI/TDF/FTC): 91%
TFV concentrations in the plasma with TAF lower than with TDF ([6]; TAF versus TDF): 4 fold
TFV exposure in plasma, decrease ([6]; TAF-based compared with TDF-based treatment): approximately 90%
AUC of TFV, decrease [6, 18]: 90.9%
Cmax of TFV, decrease [6, 18]: 95.5%
AUC of TFV, decrease [6, 19]: 96.6%
Cmax of TFV, decrease [6, 19]: 98.3%
AUC of TFV, decrease [6, 20]: 86.0%
Cmax of TFV, decrease [6, 20]: 93.6%
AUC of TFV [6, 21]: 0.339 µg·h/mL
Cmax of TFV [6, 21]: 0.0188 µg/mL
AUC of TFV [6, 22]: 3.737 µg·h/mL
Cmax of TFV [6, 22]: 0.413 µg/mL
acidic pKa [3]: 1.61
Stock solution stability [4, 9]: > 95.0%
Stability in processed samples [4]: > 95.0%
Stock solution stability ([4]; at least 1 year at 4°C): > 95.0%
Time stable in hair samples [4]: at least 18 months
intracellular TFV concentration, increase ([1]; after switching from EVG/COBI/TDF/FTC to EVG/COBI/TAF/FTC): 141%
plasma AUC of TFV, boosted versus non-boosted, higher ([7]; TAF co-administrated with darunavir/COBI): approximately 5 times
plasma AUC of TFV, boosted versus non-boosted, higher ([7]; TDF co-administrated with darunavir/COBI): 1.95 times
Average hair concentration [5, 10]: 0.0379 ± 0.0139 ng/mg hair and 0.0379 ng/mg hair
Average hair concentration [5, 11]: 0.0553 ± 0.0318 ng/mg hair and 0.0553 ng/mg hair
Hair concentration [5, 12]: 0.0389 ± 0.0117 ng/mg hair
Hair concentration ([5]; TAF-based ART, without booster): 0.0370 ± 0.0185 ng/mg hair
Hair concentration [5, 13]: 0.0483 ± 0.0327 ng/mg hair
Hair concentration ([5]; TDF-based ART, receiving COBI): 0.0844 ± 0.0357 ng/mg hair
Hair concentration ([5]; TDF-based ART, receiving RTV): 0.0388 ± 0.0146 ng/mg hair
Hair concentration [5, 14]: 0.0584 ± 0.0336 ng/mg hair
TFV normalized average concentration, Average concentration [5, 15]: 0.0500 ng/mg hair and 0.0698 ng/mg hair and 0.0375 ng/mg hair and 0.0186 ng/mg hair and 0.0973 ng/mg hair and 0.0289 ng/mg hair and 0.0850 ng/mg hair and 0.0304 ng/mg hair and 0.0274 ng/mg hair and 0.0468 ng/mg hair
Hair concentration [5, 16]: 0.0426 ± 0.0246 ng/mg hair
Hair concentration [5, 17]: 0.0525 ± 0.0295 ng/mg hair
Difference of average hair concentration, TAF versus TDF [5]: −31.5%
median TFV hair concentration [8]: 0.038 ng/mg hair

CC(Cn1cnc2c(N)ncnc21)OCP(=O)(O)O (stereo not shown) [TFV-d6, Tenofovir-d6]
Stock solution stability [4, 9]: > 95.0%
